The source of these data is a melting point compilation (Tetko et al.).

One may read the melting point as the temperature of the solid-liquid transition.

`COc1ccc(S(=O)(=O)Nc2ccccc2Cl)cc1N` came in with a melting point of 93 to 95 °C.
For `NNC(=O)CC1CCCCC1`, the melting point fell in the range of 119 to 121 °C.
Take `O=Cc1ccc(OCc2ncon2)cc1`: the melting point was in the range of 98 to 100 °C.
`COC(=O)c1c[nH]c(=O)c([N+](=O)[O-])c1` displayed a melting point of 214 to 216 °C.
The same measure for `Cc1cc(C)c2c(N)c(C(=O)N3CCOCC3)sc2n1`: 147 to 149 °C.
`N#Cc1cc(Cl)ccn1` had a melting point of 81 to 85 °C.
Consider `O=c1cc2c(n[nH]1)CCC2`, for which the melting point fell in the range of 209 to 211 °C.
In turn, `O=C(NCCO)c1ccc(Br)cn1` came in with a melting point of 98 to 100 °C.
To `Cc1ncc(Cl)c(C(=O)O)n1` belongs 130 to 132 °C; to `CC(C)(C)c1ccc(C(=O)Nc2ccc(O)cc2)cc1`, 196 to 198 °C.
The same measure for `O=C(O)C1(c2ccc(F)cc2)CCC1`: 67 to 69 °C.
In the case of `O=C(NCc1ccncc1)c1ccc(O)c(Cl)c1`, the melting point is 179 to 181 °C.
`CCc1nc2ccccc2c(C(=O)O)c1C` had a melting point of 190 to 192 °C.
On to `N#CC1(NC(=O)CCl)CCCC1`, for which the melting point was in the range of 74 to 76 °C.
`c1coc(-c2nc(C3CCCCC3)n[nH]2)c1`: the melting point lay in the range of 147 to 149 °C.
The compound `CCOC(=O)c1cnn(-c2nc3ccccc3s2)c1N` returned a melting point of 137 to 139 °C.
`Cc1[nH]c(N)c(C#N)c1C` came in with a melting point of 149 to 151 °C.
For `O=c1nncc2[nH]cccc1-2`, the melting point is 269 to 271 °C.
Turning to `O=C(O)c1cc2c(cc1O)OCO2`, the melting point lay in the range of 189 to 191 °C.
In turn, `COC(=O)N1CCc2n[nH]c(=O)cc2C1` registered a melting point of 189 to 191 °C.
Regarding `CC(O)c1ccc(S(=O)(=O)Nc2ccc(C(=O)O)cc2)cc1` (centres undefined), the melting point lay in the range of 199 to 201 °C.
Compound `CC(C)(C)OC(=O)NC1CCCCC1(C)C(=O)O` (centres undefined) displayed a melting point of 149 to 151 °C.
Consider `NCc1ccccc1N1CCCC(C(N)=O)C1` (centres undefined), for which the melting point lay within 97 to 99 °C.
To `CN(C)C(C#N)c1cc[nH]c1` (centres undefined) belongs 71 to 73 °C; to `CC(C)(C)OC(=O)N1CCCC1CC(=O)O` (centres undefined), 107 to 109 °C; to `O=C(Nc1ccccc1I)C(F)(F)F`, 105 to 107 °C.
In turn, `ClCc1nc(-c2cccc(Br)c2)no1` came in with a melting point of 47 to 49 °C.
`Nc1ccc(CC(=O)N2CCN(c3ncccn3)CC2)cc1` displayed a melting point of 193 to 195 °C.
Compound `Cc1[nH]c(=O)sc1C` had a melting point of 146 to 148 °C.
`OCCSc1ccnc2cc(Cl)ccc12`: the melting point was 111 to 113 °C.
For the compound `Nc1nc(CN2CCOCC2)cs1`, the melting point fell in the range of 145 to 150 °C.
As to `Cc1cc(Br)cn2c(C=O)cnc12`, the melting point was in the range of 152 to 154 °C.
To `NC(=S)Cc1nnc2n1CCCCC2` belongs 227 to 229 °C.
In the case of `Nc1ccccc1C(=O)Nc1cccc(Cl)c1`, the melting point is 131 to 135 °C.
The same measure for `O=C(CCl)NC1CCN(Cc2ccccc2)CC1`: 117 to 119 °C.
As for `Cc1cc(C(=O)O)c(C)n1-c1cccnc1`, the melting point was in the range of 192 to 194 °C.
Turning to `Cc1cc(C(=O)NN)c2ccccc2n1`, the melting point was in the range of 177 to 179 °C.
In turn, `CCC1NC(=O)NC1=O` (centres undefined) came in with a melting point of 115 to 119 °C.
For the compound `CC(C)Sc1ccc(C(=O)O)cc1`, the melting point lay within 139 to 141 °C.
The compound `O=C(O)c1cccc(S(=O)(=O)NC2CCCC2)c1` yielded a melting point of 209 to 211 °C.
Consider `CC(=O)c1nc2ccccc2n1C(F)F`, for which the melting point was 65 to 67 °C.
In the case of `Cc1nn2c(=S)nc3ccccc3c2[nH]1`, the melting point was in the range of 291 to 293 °C.
Regarding `Cc1cccc(C(=O)CC#N)c1C`, the melting point lay in the range of 56 to 58 °C.
To `COC(=O)c1ccc(C)c(NC(=O)CCl)c1` belongs 135 to 137 °C.
For the compound `O=c1[nH]ccnc1Cl`, the melting point lay in the range of 159 to 161 °C.
The same measure for `NC(=O)c1cccc2ncccc12`: 228 to 230 °C.
To `COCCOc1ccc(C#N)cc1` belongs 44 to 46 °C; to `O=C(O)c1nc(OCC(F)(F)F)ccc1Cl`, 85 to 87 °C.
`CCOC(OCC)c1nnc[nH]1` returned a melting point of 59 to 61 °C.
Regarding `Nc1ccc(S(N)(=O)=O)cn1`, the melting point was 171 to 173 °C.
As to `Cc1nc(Cl)cc(Cl)n1`, the melting point fell in the range of 44 to 46 °C.
To `O=C(O)C1CCCCC1c1nc2cc(Cl)ccc2[nH]1` (centres undefined) belongs 199 to 201 °C; to `Cc1cc2n(n1)C(C(F)(F)F)CCN2` (centres undefined), 169 to 171 °C; to `COC(=O)c1ccc(CBr)cc1F`, 74 to 76 °C.
To `O=Cc1cc(O)cc(Br)c1O` belongs 145 to 147 °C; to `O=C(O)c1cn2cccnc2n1`, 255 to 257 °C; to `CC(C)c1nnn[nH]1`, 104 to 106 °C.
With `N#Cc1cc(C(=O)O)c[nH]1`, the melting point was 229 to 231 °C.
Turning to `Clc1ccc(CNC2=NCCS2)cc1`, the melting point fell in the range of 106 to 108 °C.
With `CN(c1ccccc1)S(=O)(=O)c1cccc(NC(=O)CCl)c1`, the melting point was 98 to 100 °C.
Take `COCCn1cc(C(=O)O)ccc1=O`: the melting point fell in the range of 185 to 187 °C.
Compound `COc1ccc(C2CC2C(=O)O)cc1` (centres undefined) registered a melting point of 109 to 111 °C.
The compound `O=C(O)c1cc2cc(F)ccc2s1` registered a melting point of 207 to 209 °C.
On to `CN(Cc1ccccc1)C(N)=O`, for which the melting point lay within 134 to 136 °C.
To `NC(=O)C1CCCC1` belongs 173 to 175 °C; to `Cc1cc(C(=O)C(C)Cl)c(C)n1-c1ccc(OC(F)F)cc1` (centres undefined), 92 to 96 °C.
`O=C(O)CNC(=O)C1CCCC1` displayed a melting point of 109 to 111 °C.
As for `CN(C)C(=O)c1ccc(NC(=O)CCl)cc1`, the melting point fell in the range of 177 to 179 °C.
Consider `Nc1ccc(S(=O)(=O)N2CCCCCC2)cc1`, for which the melting point was in the range of 105 to 107 °C.
As for `CCNC(=O)COc1ccc(N)cc1`, the melting point was 95 to 97 °C.
In the case of `O=C(O)c1nn(-c2ccc(F)cc2)c2c1CCCC2`, the melting point was in the range of 209 to 211 °C.
In turn, `CC(=O)c1ccccc1NS(=O)(=O)c1ccc(C)cc1` showed a melting point of 148 to 150 °C.
Take `CN1C(=O)CC(C(=O)O)C1c1ccc(Cl)c(F)c1` (centres undefined): the melting point lay within 225 to 227 °C.
Regarding `COc1ccccc1-c1nnc(CCl)o1`, the melting point was in the range of 86 to 88 °C.
For the compound `CCN1N=C(C)CC1=O`, the melting point lay within 107 to 109 °C.
With `O=CC(Br)C=Nc1cnc(Br)cn1` (centres undefined), the melting point was 177 to 179 °C.
Take `Cc1nc(NC(=O)NN)no1`: the melting point lay within 288 to 290 °C.
For `CN1CCN(C(=O)c2ccc(N)cc2)CC1`, the melting point fell in the range of 135 to 137 °C.
The same measure for `Cc1nc(C(=O)O)c2ccccn12`: 187 to 189 °C; for `CCCCN(C(=O)CCl)c1c(N)n(CCC)c(=O)[nH]c1=O`: 229 to 231 °C; for `CCOc1ccc(C(N)=S)cc1`: 115 to 117 °C.
To `Fc1ccc(-c2cnc(CBr)o2)cc1` belongs 30 to 41 °C; to `CC1CCN(S(=O)(=O)c2ccc(C(=O)O)cc2)CC1`, 180 to 182 °C.
Compound `O=C(O)c1ccccc1OCc1cscn1` returned a melting point of 117 to 121 °C.
The compound `FC(F)(F)Cn1c(S)nnc1-c1ccncc1` returned a melting point of 243 to 245 °C.
Consider `Nc1noc(-c2ccsc2)n1`, for which the melting point is 196 to 198 °C.
`Cc1ccc(-c2nc(S)n[nH]2)cc1` yielded a melting point of 125 to 128 °C.
On to `CC(C#N)Oc1cc(F)ccc1N` (centres undefined), for which the melting point fell in the range of 89 to 91 °C.
`CC(C)COc1ccc(C(C)(C)C(=O)O)cc1`: the melting point was in the range of 107 to 109 °C.
